Data reported in patent US20050233413A1, “Neuroprotective polypeptides and methods of use” (priority 2002, published 2005).
Read-outs that look alike come from different tables or passages of the source. Where no end group is shown, it is not given here. [ ]: non-standard residue; d: D form. pS = N[C@@H](COP(=O)(O)O)C(=O)O

Experiments:
Assay type in all cases: cell-based
[1] = test system: F11 cells transfected with V642I-APP cDNA; assay: F11 cell death by V642I-APP transfection (Trypan blue exclusion); conditions: for cytotoxicity by V642I-APP in the presence of peptide (% dead cells of total cells): each peptide 10 μM, V642I-APP alone 53.7±1.2%, without transfection 9.0±1.4; for % dead cells of total cells: 72 hr after transfection
Source text: (§1) In one assay, transfection with V642I-APP causes cell death in F11 neuronal hybrid cells. In the other, treatment with Aβ peptides causes cell death in primary cultured cortical neurons.
(§2) F11 cells, the hybrid of a rat embryonic-day-13 primary cultured primary neuron and a mouse neuroblastoma cell, are one of the best models for primary cultured neurons as they carry representative characteristics of primary neurons, such as generation of action potentials without differentiation by NGF [22]. They have been used in various studies of is neuronal functions. Using these cells, the underlying mechanisms for cytotoxicity by V642I-APP have well been analyzed. Cytotoxicity by V642 mutants of APP has also been confirmed in multiple different systems. F11 cells were grown in Ham's F-12 (GibcoBRL, Gaithersburg, Md.) plus 18% fetal bovine serum (FBS; Hyclone, Logan, Utah) and antibiotics, as described previously. F11 cells (7×10^4 cell/well in a 6-well plate cultured in Ham's F-12 plus 18% FBS for 12-16 hr) were transfected with plasmids encoding FAD genes by lipofection [FAD cDNA 2 μg, LipofectAMINE 4 μl, PLUS reagent 8 μl (GibcoBRL)] in the absence of serum for 3 hr, and were incubated with Ham's F-12 plus 18% FBS for 2 hr. Then, culture media were changed to Ham's F-12 plus 10% FBS with or without HN peptides, and cells were cultured for an additional 67 hr. Seventy-two hr after transfection, cell mortality was measured by Trypan blue exclusion assay, performed as follows. Cells were suspended by pipetting gently, and 50 μl of 0.4% (finally 0.08%) Trypan blue solution (Sigma, St Louis, Mo.) was mixed with 200 μl of the cell suspension at room temperature. Stained cells were counted within 3 min after the mixture with Trypan blue solution.

Aβ and V642I-APP = test system: Aβ and V642I-APP
Source text: as §2
(§3) The primary culture of mouse cortical neurons was performed in poly-L-lysine-coated 24-well plates or 96-well plates (Sumitomo Bakelite, Akita, Japan), in the absence of serum and the presence of N2 supplement, as described previously. The purity of neurons by this method was >98%. Prepared neurons (for neurons seeded in 96-well plates: 2.5×10^4 or 5×10^4 cells/well, 100 μl culture medium/well; for neurons seeded in 24-well plates: 1.25×10^5 cells/well, 250 μl culture medium/well) were preincubated with or without 10 μM (in case for the experiment with 10 μM HN) synthetic HN for 16 hr, and treated with 25 μM Aβ in the presence or absence of 10 μM HN for 72 hr, respectively. As primary neurons were vulnerable to transient dryness during medium exchange, we treated neurons with 25 μM Aβ as follows. First, a half volume (50 μl for neurons in 96-well plates; 125 μl for neurons in 24-well plates) of old medium was discarded. Then, the same volume (50 μl for neurons in 96-well plates; 125 μl for neurons in 24-well plates) of prewarned fresh medium containing 10 μM HN and 50 μM Aβ (Aβ was directly resolved) was added to the culture. The Aβ peptides used at 25 μM to induce neurotoxicity formed aggregation in the medium during the cell culture at 37° C. for 72 hr. as described. The WST-8 cell viability assay was performed, using Cell Counting Kit-8 (Wako Pure Chemical Industries, Osaka, Japan), as described previously.
(§4) Calcein assay was performed with Calcein-AM {3′,6′-di-(O-acetyl)-2′,7′-bis [N,N-bis(carboxymethyl)aminomethyl] fluorescein, tetraacetoxymethyl ester; Dojindo}, as described previously. These assays were simultaneously performed in the experiments with neurons seeded in 96-well plates, as follows. Seventy-two hours after Aβ treatment, cells were added with the mixture of 10 μl WST-8 solution and 1 μl of 600 μM Calcein-AM. After 2 hr incubation in a CO2 incubator at 37° C., WST-8 absorbance was measured as OD450. After exchanging the medium to PBS to lower the background, Calcein-specific fluorescence (ex=485 nm, em=535 nm) was observed by fluorescence microscopy or measured by a spectrofluorometer (Wallac1420 ARVOsx Multi Label Counter). […]

[2] = test system: primary cultured neurons treated with 25 μM Aβ1-43; conditions: for Calcein fluorescence, percentage of neurons without treatment: 72 hours, means±S.D.
Description: as §1, §3
Calcein assay was performed with Calcein-AM {3′,6′-di-(O-acetyl)-2′,7′-bis [N,N-bis(carboxymethyl)aminomethyl] fluorescein, tetraacetoxymethyl ester; Dojindo}, as described previously. These assays were simultaneously performed in the experiments with neurons seeded in 96-well plates, as follows. Seventy-two hours after Aβ treatment, cells were added with the mixture of 10 μl WST-8 solution and 1 μl of 600 μM Calcein-AM. After 2 hr incubation in a CO2 incubator at 37° C., WST-8 absorbance was measured as OD450. After exchanging the medium to PBS to lower the background, Calcein-specific fluorescence (ex=485 nm, em=535 nm) was observed by fluorescence microscopy or measured by a spectrofluorometer (Wallac1420 ARVOsx Multi Label Counter). Most cell viability data using Calcein assay and WST-8 assay were obtained from neurons seeded at 5×10^4 cells/well in 96-well plates (high-density neurons) and confirmed by both assays with the cells seeded at 2.5×10^4 cells/well (low-density neurons).
Some experiments for Calcein assay were performed with neurons seeded in 24-well plates. […] In most experiments using primary neurons, four independent experiments were performed and the means? S. D. of the results were discussed.

[3] = test system: Aβ and four FAD genes (V642I-APP, NL-APP, M146L-PS1, and N141I-PS2); conditions: Table 5, marked *
Source text: as §2, §3, §4

[4] = V642I-APP + 10 pM peptide, means±S.D., V642I-APP alone 52.9 ± 1.1
[5] = 25 μM Aβ1-43 + 10 pM peptide, Aβ alone 8.9 ± 0.8

Compound: CC[C@H](C)[C@H](NC(=O)[C@H](CCC(=O)O)NC(=O)[C@H](CO)NC(=O)[C@@H](NC(=O)[C@H](CC(C)C)NC(=O)[C@H](CC(C)C)NC(=O)[C@H](CC(C)C)NC(=O)[C@H](CC(C)C)NC(=O)[C@H](CS)NC(=O)[C@H](CO)NC(=O)[C@H](Cc1ccccc1)NC(=O)CNC(=O)[C@H](CCCNC(=N)N)NC(=O)[C@@H]1CCCN1C(=O)[C@H](C)NC(=O)[C@@H](N)CCSC)[C@@H](C)O)C(=O)N[C@@H](CC(=O)O)C(=O)N[C@@H](CC(C)C)C(=O)N1CCC[C@H]1C(=O)N[C@H](C(=O)N[C@@H](CCCCN)C(=O)N[C@@H](CCCNC(=N)N)C(=O)N[C@@H](CCCNC(=N)N)C(=O)N[C@@H](C)C(=O)O)C(C)C [HN, reference compound]
- cytotoxicity by V642I-APP in the presence of peptide (% dead cells of total cells) [1]: 11.0±0.1%

Compound: (S14P)HN: HN derivative with Pro substitution at Ser14
- cytotoxicity by V642I-APP in the presence of peptide (% dead cells of total cells) [1]: 12.5±1.0%

Compound: EFLIVIKSMAPRGFSALLLLTSEIDLPVKRRA [EF-HNA]
- Full protection (Aβ and V642I-APP; Table 5, marked **): NE** (the corresponding peptide had no cytoprotective effect at 10 μM)
- IC50 (Aβ and V642I-APP; Table 5, marked **): > 10000 nM

Compound: EFLIVIKSMAPRGFSCLLLLTGEIDLPVKKKK [EF-HNG-KKK]
- IC50 [1]: ~0.1 nM
- concentration of full cytoprotection / complete suppression against V642I-APP ([1]; F11 cells): 10 nM
- IC50 [2]: ~1 nM
- concentration of full neuroprotection against Aβ1-43 ([2]; 25 μM Aβ1-43): 10 to 100 nM
- suppression of Aβ neurotoxicity in the presence of 100 μM EFLIVIKS ([2]; 25 μM Aβ1-43, EF-HN and EF-HNG at 10 μM, WST-8 and Calcein assays): could not suppress Aβ neurotoxicity at all
- Full protection (minimal concentration that exerted full cytoprotection) (Aβ and V642I-APP; Table 5, marked **): ˜10 nM
- potency relative to EF-HNG (Aβ and V642I-APP; times less potent than EF-HNG): ~10 times

Compound: MAPRGF(D-Ser)CLLLLTSEIDLPVKRRA [D-Ser7 HN]
- Full protection (minimal concentration that exerted full cytoprotection) [3]: ˜10 μM

Compound: MAPRGF(p-S)CLLLLT(p-S)EIDLPVKRRA (MAPRGF[pS]CLLLLT[pS]EIDLPVKRRA) [P-S7/14 HN]
- % dead cells of total cells [1, 4]: 54.8 ± 0.5%
- % dead cells of total cells ([1]; V642I-APP + 100 pM peptide): 54.1 ± 1.5%
- % dead cells of total cells ([1]; V642I-APP + 1 nM peptide): 52.9 ± 1.6%
- % dead cells of total cells ([1]; V642I-APP + 10 nM peptide): 53.8 ± 3.1%
- % dead cells of total cells ([1]; V642I-APP + 100 nM peptide): 38.2 ± 1.9 %
- % dead cells of total cells ([1]; V642I-APP + 1 μM peptide): 22.7 ± 5.2 %
- % dead cells of total cells ([1]; V642I-APP + 10 μM peptide): 11.8 ± 1.2 %
- Calcein fluorescence, percentage of neurons without treatment [2, 5]: 9.3 ± 0.4%
- Calcein fluorescence, percentage of neurons without treatment ([2]; 25 μM Aβ1-43 + 100 pM peptide): 8.8 ± 0.3%
- Calcein fluorescence, percentage of neurons without treatment ([2]; 25 μM Aβ1-43 + 1 nM peptide): 8.8 ± 0.2%
- Calcein fluorescence, percentage of neurons without treatment ([2]; 25 μM Aβ1-43 + 10 nM peptide): 8.7 ± 0.3%
- Calcein fluorescence, percentage of neurons without treatment ([2]; 25 μM Aβ1-43 + 100 nM peptide): 8.6 ± 0.2%
- Calcein fluorescence, percentage of neurons without treatment ([2]; 25 μM Aβ1-43 + 1 μM peptide): 84.0 ± 5.8 %
- Calcein fluorescence, percentage of neurons without treatment ([2]; 25 μM Aβ1-43 + 10 μM peptide): 103.3 ± 0.8 %
- Full protection (minimal concentration that exerted full cytoprotection) (Aβ and V642I-APP; Table 5, marked **): ˜10 μM

Compound: MAPRGF(p-S)CLLLLTSEIDLPVKRRA (MAPRGF[pS]CLLLLTSEIDLPVKRRA) [P-S7 HN]
- % dead cells of total cells [1, 4]: 53.7 ± 0.8%
- % dead cells of total cells ([1]; V642I-APP + 100 pM peptide): 53.1 ± 1.7%
- % dead cells of total cells ([1]; V642I-APP + 1 nM peptide): 54.8 ± 1.6%
- % dead cells of total cells ([1]; V642I-APP + 10 nM peptide): 54.1 ± 1.4%
- % dead cells of total cells ([1]; V642I-APP + 10 μM peptide): 11.6 ± 1.1 %
- Calcein fluorescence, percentage of neurons without treatment [2, 5]: 9.0 ± 0.9%
- Calcein fluorescence, percentage of neurons without treatment ([2]; 25 μM Aβ1-43 + 100 pM peptide): 8.7 ± 0.8%
- Calcein fluorescence, percentage of neurons without treatment ([2]; 25 μM Aβ1-43 + 1 nM peptide): 8.8 ± 0.9%
- Calcein fluorescence, percentage of neurons without treatment ([2]; 25 μM Aβ1-43 + 10 nM peptide): 8.8 ± 0.6%
- Calcein fluorescence, percentage of neurons without treatment ([2]; 25 μM Aβ1-43 + 100 nM peptide): 10.5 ± 0.9%
- Calcein fluorescence, percentage of neurons without treatment ([2]; 25 μM Aβ1-43 + 1 μM peptide): 84.2 ± 6.8 %
- Calcein fluorescence, percentage of neurons without treatment ([2]; 25 μM Aβ1-43 + 10 μM peptide): 103.3 ± 2.8 %
- Full protection (minimal concentration that exerted full cytoprotection) [3]: ˜10 μM
